“And” between values parts separate entries of the source, which are not always exact repeats. Identical values can stand only once.
Assays:
Colinus virginianus = details: oral; for NOEL: short-term
Coturnix japonica = details: acute; oral; mortality
Daphnia magna = details: chronic/long-term; duration: 21 days; reproduction
Apis mellifera = details: acute, mortality
Tagia sp. = details: chronic/long-term; duration: 8 weeks

Compound | LD50 (Colinus virginianus; acute, mortality) | NOEL (Colinus virginianus; diet) | NOEL (Anas platyrhynchos; reproductive) | NOEL (Anas platyrhynchos; short-term, oral, feed) | LD50 (Coturnix japonica) | NOEC (Daphnia magna) | LC50 (Colinus virginianus; acute, diet, mortality) | LD50 (Apis mellifera; dermal) | LD50 (Apis mellifera; oral, unspecified) | NOEC (Tagia sp.)
O.O.[Cu] [Copper hydroxide (Cu(OH)2)] | 223 mg/kg | 124 mg/kg-day and 132 mg/kg-day | 7.05 mg/kg-day | 216 mg/kg-day and 191 mg/kg-day | 556 mg/kg | – | – | – | – | –
[Cu+].[Cu+].[O-2] [Cuprous oxide] | – | 31.9 mg/kg-day | – | – | 1180 mg/kg | – | – | – | – | –
[Cl-].[Cu+2].[Cu+2].[OH-].[OH-].[OH-] [Dicopper chloride trihydroxide] | 511 mg/kg | – | – | – | – | 0.0076 mg/L | 333 mg/kg-day | 44.3 µg/piece | 12.1 µg/piece | < 15 mg/kg
